Experimental data taken from patent US8785452B2, “Anti-infective compounds” (priority 2008, dated 2014).
Values after ≈ are worked out from the molar mass of the structure shown. Where two headings read alike, the source gives them in different places.

Key:
M. bovis BCG Pasteur = assay: microbe, parasite or virus in culture; format: cell-based; conditions: Mycobacterium tuberculosis variant bovis BCG
M. tuberculosis H37Ra = assay: MIC, in vitro bacterial growth assay; format: cell-based; conditions: Mycobacterium tuberculosis; laboratory strain H37Ra; read-out: MIC
M. bovis BCG Tokyo = assay: microbe, parasite or virus in culture; format: cell-based; conditions: Mycobacterium tuberculosis variant bovis BCG
C. jeikeium = assay: Antimicrobial spectrum; format: cell-based, Corynebacterium; conditions: Corynebacterium C. jeikeium
[1] = system: Fungi: Candida albicans, C. glabrata, C. parapsilosis; assay: Antimicrobial spectrum; format: cell-based; conditions: Candida panel
Antimicrobial spectrum [2] = format: cell-based; conditions: Gram-positive panel
C. striatum = assay: Antimicrobial spectrum; format: cell-based, Corynebacterium; conditions: Corynebacterium C. striatum
[3] = system: M. tuberculosis Beijing 1237; assay: MIC, in vitro bacterial growth assay; format: cell-based; conditions: Mycobacterium tuberculosis, BEIJING1237; laboratory strain Beijing 1237
[4] = system: panel of cell lines derived from different body tissue; assay: Cytotoxicity assay (resazurin), whole panel; conditions: 5 days co-incubation, 133 up to 100 μM
M. tuberculosis H37Rv [5] = assay: Conventional CFU determination in infected macrophages; format: cell-based, Mycobacterium tuberculosis
[6] = system: M. tuberculosis clinical isolates; format: cell-based, Mycobacterium tuberculosis
HepG2-Hepatocytes = assay: Cytotoxicity assay (resazurin); format: cell-based; conditions: 5 days
Experimental: (§1) In order to address compound toxicity, seven cell lines originating from different body tissues were cultivated in the presence of 3-fold dilutions of compounds starting from 100 μM. After 5 days of culture, cell viability was assessed by the resazurin test. Briefly, cells were incubated with 10 μg/mL of resazurin (Sigma-Aldrich St. Louis, Mo.) for 4 h at 37° C. under 5% CO2. Resofurin fluorescence (RFU) was measured as indicated above. Percentage of toxicity on cells was calculated as follows: Cytotoxicity (%)=(RFUDMSO−RFUBlank)−(RFUcompound−RFUblank)/(RFUDMSO−RFUBlank)×100. Percentage of cytotoxicity was plotted against compound concentration and the minimal toxic concentration (MTC50) was determined by non-linear regression analysis as the lowest compound concentration where fifty percent toxicity was observed on the corresponding cell line.

BJ-Skin = assay: Cytotoxicity assay (resazurin); format: cell-based; conditions: 5 days
Experimental: as §1

SK-N-SH-Brain = assay: Cytotoxicity assay (resazurin); format: cell-based; conditions: 5 days
Experimental: as §1

HEK293-Kidney = assay: Cytotoxicity assay (resazurin); format: cell-based; conditions: 5 days
Experimental: as §1

MRC5-Lung = assay: Cytotoxicity assay (resazurin); format: cell-based; conditions: 5 days
Experimental: as §1

M. tuberculosis H37Rv [7] = assay: MIC, in vitro bacterial growth assay; format: cell-based; conditions: Mycobacterium tuberculosis; laboratory strain H37Rv; read-out: MIC
M. smegmatis mc^2 155 = assay: MIC, in vitro bacterial growth assay; format: cell-based, Mycobacterium smegmatis; conditions: Mycolicibacterium smegmatis, MC^2155
Antimicrobial spectrum [8] = format: cell-based; conditions: Gram-negative panel
[9] = system: M. tuberculosis H37Rv-GFP; assay: microbe, parasite or virus in culture; format: cell-based, Mycobacterium tuberculosis; conditions: for inhibition at 20 µM: Mycobacterium tuberculosis, H37RV, Macrophage
Raw264.7 cells [10] = assay: Cell number (CellNb) from image analysis of the phenotypic cell-based assay; conditions: primary screen, 20 μM
Raw264.7 cells [11] = conditions: mouse, 5 days, 20 μM
[12] = compounds 5 μM, Raw264.7, mouse bone marrow-derived macrophages, human primary macrophages, five days after infection
[13] = confirmation, 20 uM, read-out: QIM Confirm % Inhibition 20 uM
[14] = primary screen, 20 μM, read-out: Primary QIM % Inhibition

COc1ccc(OCCNC(=O)c2cc([N+](=O)[O-])cc([N+](=O)[O-])c2)cc1 [compound 4, N-(2-(4-Methoxyphenoxy)ethyl)-3,5-dinitrobenzamide]
MIC (M. bovis BCG Pasteur): 1.2 µM (≈ 0.434 µg/mL) | MIC (M. tuberculosis H37Ra): 1.2 µM (≈ 0.434 µg/mL) | MIC (M. bovis BCG Tokyo): 1.2 µM (≈ 0.434 µg/mL) | MIC (C. jeikeium): 2.7 µM (≈ 0.976 µg/mL) | MIC [1]: > 250 µM | MIC (Antimicrobial spectrum [2]): > 250 µM | MIC (C. striatum): 27 µM (≈ 9.76 µg/mL) | MIC [3]: 0.3 µM (≈ 0.108 µg/mL) | cytotoxicity against the panel of cell lines [4]: no cytotoxicity | decrease in the number of CFUs (M. tuberculosis H37Rv [5]; [12]): ten-fold decrease | Range of MICs for multiple strains ([6]; Drug Sensitive, Tissue): 0.38 µM | Range of MICs for multiple strains ([6]; INH^R RIF^R Strep^R, Sputum): 0.1 µM | Range of MICs for multiple strains ([6]; INH^R RIF^R Strep^R, Tissue): 0.05 to 0.1 µM | Range of MICs for multiple strains ([6]; MDR, Sputum): 0.05 to 0.1 µM | Range of MICs for multiple strains ([6]; MDR, Tissue): 0.05 to 0.1 µM | Range of MICs for multiple strains ([6]; RIF^R, Sputum): 0.05 µM | Range of MICs for multiple strains ([6]; RIF^R, Tissue): 0.02 to 0.05 µM | Range of MICs for multiple strains ([6]; XDR, Sputum): 0.02 to 0.05 µM | Range of MICs for multiple strains ([6]; XDR, Tissue): 0.05 to 0.1 µM | Range of MTC50 (HepG2-Hepatocytes): >100 µM | Range of MTC50 (BJ-Skin): >100 µM | Range of MTC50 (SK-N-SH-Brain): >100 µM | Range of MTC50 (HEK293-Kidney): >100 µM | Range of MTC50 (MRC5-Lung): >100 µM | MIC (M. tuberculosis H37Rv [7]): 0.6 µM (≈ 0.217 µg/mL) | MIC (M. smegmatis mc^2 155): 1.2 µM (≈ 0.434 µg/mL) | MIC (Antimicrobial spectrum [8]): > 250 µM

O=C(NCCOCc1ccccc1)c1cc([N+](=O)[O-])cc([N+](=O)[O-])c1 [compound 24, N-(2-(Benzyloxy)ethyl)-3,5-dinitrobenzamide]
MIC (M. bovis BCG Pasteur): 1.2 µM (≈ 0.414 µg/mL) | MIC (M. tuberculosis H37Ra): 1.3 µM (≈ 0.449 µg/mL) | MIC (M. bovis BCG Tokyo): 0.6 µM (≈ 0.207 µg/mL) | MIC (C. jeikeium): 2.7 µM (≈ 0.932 µg/mL) | MIC [1]: > 250 µM | MIC (Antimicrobial spectrum [2]): > 250 µM | MIC (C. striatum): 27 µM (≈ 9.32 µg/mL) | MIC [3]: 0.1 µM (≈ 0.0345 µg/mL) | cytotoxicity against the panel of cell lines [4]: no cytotoxicity | decrease in the number of CFUs (M. tuberculosis H37Rv [5]; [12]): ten-fold decrease | Range of MICs for multiple strains ([6]; Drug Sensitive, Tissue): 0.31 µM | Range of MICs for multiple strains ([6]; INH^R RIF^R Strep^R, Sputum): 0.08 µM | Range of MICs for multiple strains ([6]; INH^R RIF^R Strep^R, Tissue): 0.04 to 0.08 µM | Range of MICs for multiple strains ([6]; MDR, Sputum): 0.04 to 0.08 µM | Range of MICs for multiple strains ([6]; MDR, Tissue): 0.04 to 0.08 µM | Range of MICs for multiple strains ([6]; RIF^R, Sputum): 0.08 µM | Range of MICs for multiple strains ([6]; RIF^R, Tissue): 0.08 µM | Range of MICs for multiple strains ([6]; XDR, Sputum): 0.04 to 0.08 µM | Range of MICs for multiple strains ([6]; XDR, Tissue): 0.08 µM | Range of MTC50 (HepG2-Hepatocytes): >100 µM | Range of MTC50 (BJ-Skin): >100 µM | Range of MTC50 (SK-N-SH-Brain): >100 µM | Range of MTC50 (HEK293-Kidney): >100 µM | Range of MTC50 (MRC5-Lung): >100 µM | MIC (M. tuberculosis H37Rv [7]): 0.6 µM (≈ 0.207 µg/mL) | MIC (M. smegmatis mc^2 155): 0.6 µM (≈ 0.207 µg/mL) | MIC (Antimicrobial spectrum [8]): > 250 µM

COc1cccn2c(=O)c(CO)c(Nc3ccc(F)c(F)c3)nc12
melting point: 231 °C (dec.)

CNC(=O)c1c(Nc2ccc(F)c(Cl)c2)nc2c(OC)cccn2c1=O
melting point: 218 °C (dec.)

CS(=O)(=O)O[C@H]1CCN(C(=O)c2cc([N+](=O)[O-])cc([N+](=O)[O-])c2)C1
melting point: 138 to 140 °C

Cc1cccn2c(=O)c(CO)c(Nc3cccc(Cl)c3)nc12 [compound 232, 2-(3-Chlorophenylamino)-3-(hydroxymethyl)-9-methyl-4H-pyrido[1,2-a]pyrimidin-4-one]
bacterial load and host cell abundance versus DMSO control [9]: harbored fewer bacteria compared to DMSO control and were more abundant | decrease in the number of CFUs (M. tuberculosis H37Rv [5]; human and mouse cells, seven days after infection, 232 at 20 μM): ten-fold decrease

Cc1ccc(/C=N/NC(=O)c2ccncc2)cc1 [IPK 000 041 50]
Primary QIM CellNb (Raw264.7 cells [10]): 296.3 | inhibition at 20 µM [9, 13]: 90.8% | inhibition at 20 µM [9, 14]: 81.6% | Primary QIM CellNb (Raw264.7 cells [11]): 102.2

CC(/C=N/NC(=O)c1ccccn1)=C\c1ccco1 [IPK 000 110 79]
Primary QIM CellNb (Raw264.7 cells [10]): 462.3 | inhibition at 20 µM [9, 13]: 83.4% | inhibition at 20 µM [9, 14]: 72.9% | Primary QIM CellNb (Raw264.7 cells [11]): 22.8

Cc1nn(C)cc1/C=N/NC(=O)c1ccncc1 [IPK 000 079 13]
Primary QIM CellNb (Raw264.7 cells [10]): 294.0 | inhibition at 20 µM [9, 13]: 102% | inhibition at 20 µM [9, 14]: 69.6% | Primary QIM CellNb (Raw264.7 cells [11]): 97.8
